Structures can show the parent of a compound that is named as a salt. Where two headings read alike, the source gives them in different places.
Assays:
hPAD4 = hPAD4 (Homo sapiens, UniProt Q9UM07); experiment: hPAD4 RFMS (RapidFire mass spectrometry) PAD4 inhibition assay; format: biochemical; settings: hPAD4 enzyme, RFMS readout;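 on hPAD4 RFMS pIC50: grade E means pIC50 at most 4 and F means pIC50 4.0 to 5.0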
Experimental: (§1) Compounds of the present invention were assayed as inhibitors of PAD4 using the assay protocol described below.
(§2) Compound stock solutions were stored at RT. […] Final assay conditions were as follows:
(§3) Total incubation time: 65 mins at 37° C.
(§4) Stop solution: 40 μl 5% TCA in ACN
(§5) The compound numbers correspond to the compound numbers in Table 1. […] The term pIC50=−log(IC50). […] “NA” stands for “not assayed.”

mPAD4 = mPAD4 (Mus musculus, UniProt Q9Z183); experiment: mPAD4 RFMS PAD4 inhibition assay; format: biochemical; settings: mPAD4, RFMS readout;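 on mPAD4 RFMS pIC50: grade E means pIC50 at most 4 and F means pIC50 4.0 to 5.0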
Experimental: as §1, §2, §3, §4, §5

[1] = pIC50=−log(IC50), read-out: hPAD4 RFMS pIC50 (converted)
[2] = pIC50=−log(IC50), read-out: mPAD4 RFMS pIC50 (converted)

Chain of hPAD4 (Q9UM07 whole entry): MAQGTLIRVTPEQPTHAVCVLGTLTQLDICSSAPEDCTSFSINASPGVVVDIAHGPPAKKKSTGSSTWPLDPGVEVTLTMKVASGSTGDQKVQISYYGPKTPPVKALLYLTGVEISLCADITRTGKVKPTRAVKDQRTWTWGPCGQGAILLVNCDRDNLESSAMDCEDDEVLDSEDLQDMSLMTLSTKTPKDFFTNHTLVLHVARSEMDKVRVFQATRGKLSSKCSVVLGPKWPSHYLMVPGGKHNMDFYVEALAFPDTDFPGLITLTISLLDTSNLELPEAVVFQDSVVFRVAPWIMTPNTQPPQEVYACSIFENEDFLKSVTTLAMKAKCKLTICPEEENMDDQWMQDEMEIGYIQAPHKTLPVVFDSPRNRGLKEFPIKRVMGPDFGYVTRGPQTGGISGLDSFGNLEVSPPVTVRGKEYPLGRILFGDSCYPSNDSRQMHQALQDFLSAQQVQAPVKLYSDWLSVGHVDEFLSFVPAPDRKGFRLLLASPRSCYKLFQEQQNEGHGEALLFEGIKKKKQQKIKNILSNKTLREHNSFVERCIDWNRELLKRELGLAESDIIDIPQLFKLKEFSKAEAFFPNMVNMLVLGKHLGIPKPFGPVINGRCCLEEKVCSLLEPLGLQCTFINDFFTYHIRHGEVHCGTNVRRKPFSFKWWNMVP
Chain of mPAD4 (Q9Z183 whole entry): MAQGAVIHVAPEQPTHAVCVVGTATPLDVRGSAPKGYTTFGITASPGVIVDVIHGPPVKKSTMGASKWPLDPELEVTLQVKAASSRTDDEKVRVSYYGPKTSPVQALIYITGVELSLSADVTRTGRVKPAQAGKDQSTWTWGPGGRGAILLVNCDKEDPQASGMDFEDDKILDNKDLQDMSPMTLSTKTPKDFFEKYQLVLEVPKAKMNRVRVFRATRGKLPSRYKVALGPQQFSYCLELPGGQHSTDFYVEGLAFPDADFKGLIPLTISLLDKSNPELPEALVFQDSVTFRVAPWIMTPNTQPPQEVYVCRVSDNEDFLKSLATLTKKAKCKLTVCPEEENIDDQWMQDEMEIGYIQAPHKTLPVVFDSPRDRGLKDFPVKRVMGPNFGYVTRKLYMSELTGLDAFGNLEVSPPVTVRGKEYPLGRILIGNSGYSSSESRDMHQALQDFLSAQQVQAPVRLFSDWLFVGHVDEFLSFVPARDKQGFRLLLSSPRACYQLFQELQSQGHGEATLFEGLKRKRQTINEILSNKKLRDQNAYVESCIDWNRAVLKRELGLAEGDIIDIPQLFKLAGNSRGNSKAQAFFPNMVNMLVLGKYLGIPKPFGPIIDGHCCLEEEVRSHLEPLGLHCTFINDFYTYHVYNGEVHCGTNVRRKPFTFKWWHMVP

| IC50 (hPAD4; [1]) [µM] | IC50 (hPAD4; read-out: hPAD4 RFMS IC50) [µM] | IC50 (mPAD4; [2]) [µM] | IC50 (mPAD4; read-out: mPAD4 RFMS IC50) [µM] | SMILES |
| --- | --- | --- | --- | --- |
| < 1 | < 1 | < 1 | < 1 | COc1cc(C(=O)N2CC[C@@H]3CCN[C@@H]3C2)cc2nc(-c3cc4cccnc4n3CC3CC3)n(C)c12 [Compound I-11] |
| 1 to 10 | 1 to 5 | 10 to 100 | > 10 | COc1cc(C(=O)N2CC[C@H]3CCN[C@H]3C2)cc2nc(-c3cc4cncnc4n3CC3CC3)n(C)c12 [Compound I-12, 5-[(3aR,7aR)-octahydro-1H-pyrrolo[2,3-c]pyridine-6-carbonyl]-2-[7-(cyclopropylmethyl)-7H-pyrrolo[2,3-d]pyrimidin-6-yl]-7-methoxy-1-methyl-1H-1,3-benzodiazole] |
| 10 to 100 | > 10 | 10 to 100 | > 10 | COc1cc(C(=O)N2CC[C@H]3CCN[C@H]3C2)cc2nc(-c3cc4cccnc4n3CC3CC3)n(C)c12 [Compound I-17] |
| 10 to 100 | > 10 | 10 to 100 | > 10 | Cn1c(-c2cc3cccnc3n2CC2CC2)nc2cc(C(=O)N3CC[C@@H]4CCN[C@@H]4C3)ccc21 [Compound I-18] |
| 10 to 100 | > 10 | 10 to 100 | > 10 | CCn1c(-c2cc3cccnc3n2CC2CC2)nc2cc(C(=O)N3CC[C@H]4CCN[C@H]4C3)cc(OC)c21 [Compound I-22] |
| < 1 | < 1 | 1 to 10 | 1 to 5 | CCn1c(-c2cc3cccnc3n2CC2CC2)nc2cc(C(=O)N3CC[C@@H]4CCN[C@@H]4C3)cc(OC)c21 [Compound I-23] |
| < 1 | < 1 | < 1 | < 1 | COc1cc(C(=O)N2CC[C@H]3OCCN[C@H]3C2)cc2nc(-c3cc4cccnc4n3CC3CC3)n(C)c12 [Compound I-28] |
| 10 to 100 | 5 to 10 | 1 to 10 | 5 to 10 | COc1cc(C(=O)N2CC[C@@H]3OCCN[C@@H]3C2)cc2nc(-c3cc4cccnc4n3CC3CC3)n(C)c12 [Compound I-29] |
| 1 to 10 | 1 to 5 | 1 to 10 | 1 to 5 | COc1cc(C(=O)N2CCC(F)C(N)C2)cc2nc(-c3cc4cccnc4n3CC3CC3)n(C)c12 (centres unmarked) [Compound I-56] |
| 1 to 10 | 1 to 5 | < 1 | < 1 | CCn1c(-c2cc3cccnc3n2CC2CC2)nc2cc(C(=O)N3C[C@@H](N)C[C@H](F)C3)cc(OC)c21 [Compound I-71] |
| 1 to 10 | 1 to 5 | 1 to 10 | 1 to 5 | COc1cc(C(=O)N2CC[C@H](F)[C@H](N)C2)cc2nc(-c3cc4cccnc4n3CC3CC3)n(C)c12 [Compound I-90] |
| < 1 | < 1 | < 1 | < 1 | COc1cc(C(=O)N2CC[C@@H](F)[C@@H](N)C2)cc2nc(-c3cc4cccnc4n3CC3CC3)n(C)c12 [Compound I-91] |

Second part, the compound before the results:

| SMILES | IC50 (hPAD4; [1]) [µM] | IC50 (hPAD4; read-out: hPAD4 RFMS IC50) [µM] | IC50 (mPAD4; [2]) [µM] | IC50 (mPAD4; read-out: mPAD4 RFMS IC50) [µM] |
| --- | --- | --- | --- | --- |
| COc1cc(C(=O)N2CC3(CCCNC3)C2)cc2nc(-c3cc4cccnc4n3CC3CC3)n(C)c12 [Compound I-27] | 1 to 10 | 1 to 5 | 1 to 10 | 1 to 5 |
| COc1cc(C(=O)N2CC3CCC2[C@@H]3N)cc2nc(-c3cc4cccnc4n3CC3CC3)n(C)c12 (some centres unmarked) [Compound I-30] | 10 to 100 | > 10 | 10 to 100 | > 10 |
| COc1cc(C(=O)N2CC3CCC2[C@H]3N)cc2nc(-c3cc4cccnc4n3CC3CC3)n(C)c12 (some centres unmarked) [Compound I-31] | < 1 | < 1 | < 1 | < 1 |
| COc1cc(C(=O)N2CC3(CNCCO3)C2)cc2nc(-c3cc4cccnc4n3CC3CC3)n(C)c12 [Compound I-32] | > 100 | > 10 | 10 to 100 | > 10 |
| COc1ccc2cc(-c3nc4cc(C(=O)N5CCC[C@@H](N)C5)cc(OC)c4n3C)n(CC3CC3)c2n1 [Compound I-33, (3R)-1-{2-[1-(cyclopropylmethyl)-6-methoxy-1H-pyrrolo[2,3-b]pyridin-2-yl]-7-methoxy-1-methyl-1H-1,3-benzodiazole-5-carbonyl}piperidin-3-amine] | < 1 | < 1 | < 1 | < 1 |
| COc1cc(C(=O)N2C[C@@H](N)C[C@H](F)C2)cc2nc(-c3cc4cccnc4n3CC3CC3)n(C)c12 [Compound I-34] | < 1 | < 1 | < 1 | < 1 |
| COc1cc(C(=O)N2C[C@H](N)C[C@@H](F)C2)cc2nc(-c3cc4cccnc4n3CC3CC3)n(C)c12 [Compound I-35] | < 1 | < 1 | < 1 | < 1 |
| COc1cc(C(=O)N2C[C@@H](N)CC[C@H]2C)cc2nc(-c3cc4cccnc4n3CC3CC3)n(C)c12 [Compound I-36] | < 1 | < 1 | < 1 | < 1 |
| Cn1c(-c2cc3cccnc3n2CC2CC2)nc2cc(C(=O)N3CCCC4NCCC43)ccc21 (centres unmarked) [Compound I-52] | 10 to 100 | > 10 | 10 to 100 | > 10 |
| Cn1c(-c2cc3cccnc3n2CC2CC2)nc2cc(C(=O)N3CC[C@H](F)[C@@H](N)C3)ccc21 [Compound I-54] | 1 to 10 | 5 to 10 | 10 to 100 | > 10 |
| Cn1c(-c2cc3cccnc3n2CC2CC2)nc2cc(C(=O)N3CC[C@@H](F)[C@H](N)C3)ccc21 [Compound I-55] | 10 to 100 | > 10 | 10 to 100 | > 10 |
| Cn1c(-c2cc3cccnc3n2CC2CC2)nc2cc(C(=O)N3CCC[C@@H](N)C3)cc(OCC(F)(F)F)c21 [Compound I-59] | 1 to 10 | 1 to 5 | < 1 | < 1 |
| Cn1c(-c2cc3cccnc3n2CC2CC2)nc2cc(C(=O)N3C[C@@H](N)C[C@H](F)C3)ccc21 [Compound I-66] | 1 to 10 | < 1 | 1 to 10 | 1 to 5 |
| COc1cc2c(cc1C(=O)N1CCC[C@@H](N)C1)nc(-c1cc3cccnc3n1CC1CC1)n2C [Compound I-68, (3R)-1-{2-[1-(cyclopropylmethyl)-1H-pyrrolo[2,3-b]pyridin-2-yl]-6-methoxy-1-methyl-1H-1,3-benzodiazole-5-carbonyl}piperidin-3-amine hydrochloride] | 1 to 10 | 5 to 10 | 10 to 100 | > 10 |
| CC(=O)Nc1ccnc2c1cc(-c1nc3cc(C(=O)N4CCC[C@@H](N)C4)ccc3n1C)n2CC1CC1 [Compound I-69, N-(2-{5-[(3R)-3-Aminopiperidine-1-carbonyl]-1-methyl-1H-1,3-benzodiazol-2-yl}-1-(cyclopropylmethyl)-1H-pyrrolo[2,3-b]pyridin-4-yl)acetamide] | 1 to 10 | < 1 | 10 to 100 | > 10 |
| COc1ccc2cc(-c3nc4cc(C(=O)N5CCC[C@@H](N)C5)ccc4n3C)n(CC3CC3)c2n1 [Compound I-70, (3R)-1-{2-[1-(Cyclopropylmethyl)-6-methoxy-1H-pyrrolo[2,3-b]pyridin-2-yl]-1-methyl-1H-1,3-benzodiazole-5-carbonyl}piperidin-3-amine] | < 1 | < 1 | < 1 | < 1 |
| Cn1c(-c2cc3cccnc3n2CC2CC2)nc2cc(C(=O)N3C[C@@H](N)C[C@H](F)C3)cc(OCC(F)F)c21 [Compound I-72] | 1 to 10 | 1 to 5 | < 1 | < 1 |
| Cn1c(-c2cc3cccnc3n2CC2CC2)nc2cc(C(=O)N3C[C@@H](N)C[C@H](F)C3)cc(OC(F)F)c21 [Compound I-73] | 1 to 10 | 1 to 5 | < 1 | < 1 |
| COc1cc(C(=O)N2C[C@@H]3[C@@H](N)[C@@H]3C2)cc2nc(-c3cc4cccnc4n3CC3CC3)n(C)c12 [Compound I-76] | 10 to 100 | > 10 | 10 to 100 | > 10 |
| COc1cc(C(=O)N2CC3CCC2C3N)cc2nc(-c3cc4cccnc4n3CC3CC3)n(C)c12 (centres unmarked) [Compound I-81] | < 1 | < 1 | < 1 | < 1 |
| COc1cc(C(=O)N2CC(O)(C3(N)CCCC3)C2)cc2nc(-c3cc4cccnc4n3CC3CC3)n(C)c12 [Compound I-84] | 10 to 100 | > 10 | 10 to 100 | > 10 |
| COc1cc(C(=O)N2CC3(CCC3N)C2)cc2nc(-c3cc4cccnc4n3CC3CC3)n(C)c12 (centres unmarked) [Compound I-85] | 10 to 100 | > 10 | 10 to 100 | > 10 |
| COc1cc(C(=O)N2C[C@H](N)CC[C@@H]2C)cc2nc(-c3cc4cccnc4n3CC3CC3)n(C)c12 [Compound I-87] | < 1 | < 1 | < 1 | < 1 |
| COc1cc(C(=O)N2C[C@H](N)CC[C@H]2C)cc2nc(-c3cc4cccnc4n3CC3CC3)n(C)c12 [Compound I-88] | 10 to 100 | > 10 | 1 to 10 | 5 to 10 |
| COc1cc(C(=O)N2C[C@@H](N)CC[C@@H]2C)cc2nc(-c3cc4cccnc4n3CC3CC3)n(C)c12 [Compound I-89] | 10 to 100 | > 10 | 10 to 100 | > 10 |
| CCn1c(-c2cc3ccc(OC)nc3n2CC2CC2)nc2cc(C(=O)N3C[C@@H](N)C[C@H](F)C3)cc(OC)c21 [Compound I-92] | 1 to 10 | 1 to 5 | < 1 | < 1 |

Reference: patent US9963448B2, “Bicyclic inhibitors of PAD4” (Padlock Therapeutics, Inc., priority 2015, dated 2018)
